Laboratory results: EP4144350B1, “TREATMENT OR PREVENTION OF VASCULAR MALFORMATION” (Universitätsmedizin Greifswald, priority 2021, dated 2023)

What was measured:
[1] = system: CCM3^-/- BMECs; assay: hiPSC-derived BMEC co-culture, fluorescent imaging of clonal expansion; format: cell-based, human; details: 10 µM for six days, released, another six days under standard conditions
Method: Fluorescently tagged human induced pluripotent stem cells (Coriell Institute, Camden, NJ, USA) were maintained at 37 °C and 5 % CO2 in Essential 8 Flex medium (Thermo Fisher Scientific, Waltham, MA, USA) on plates coated with growth factor reduced matrigel (Corning Inc., Corning, NY, USA). Cells were passaged with 0.5 mM EDTA (Thermo Fisher Scientific). The following endogenously tagged cell lines as part of the Allen Cell Collection (Coriell Institute) were used: AICS-0036-006:WTC-mEGFP-Safe harbor locus (AAVS1)-cl6 and AICS-0054-091:WTC-mTagRFPT-CAAX-Safe harbor locus (AAVS1)-cl91.
CCM3^+/+ AICS-0054 hiPSCs, CCM3^+/+ and CCM3^-/- AICS-0036 hiPSCS were differentiated into human brain microvacular endothelial-like cells (hBMECs). Briefly, 158,000 cells were seeded in Essential 8 Flex medium containing 10 µM Y-27632 on growth factor reduced Matrigel-coated 6-well plates. After 24 h, differentiation was initiated by substitution of Essential 8 Flex with Essential 6 medium (Thermo Fisher Scientific). Medium was changed daily for 4 days. […] The ratio of EGFP-tagged AICS-0036 cells compared to all cells was determined using the ImageJ software. […]

[2] = system: CCM3^+/+ and CCM3^-/- CI-huVECs; assay: Cell viability after compound treatment; format: cell-based, human; details: 72 h after treatment (Fig. 15)
[3] = system: CCM3^-/- CI-huVECs in co-culture with CCM3^+/+ CI-huVECs; assay: Spike-in co-culture assay / apoptosis compound library screening: CCM3 knockout allele frequency by amplicon deep sequencing; format: cell-based, human
Method: Clonally expanded CI-huVEC lines with biallelic loss-of-function variants in the first coding exon of CCM3 have been described before or were established according to a published CRISPR/Cas9 genome editing protocol. Blood outgrowth endothelial cells (BOECs) were cultured in EGM-2 medium (Lonza, Basel, Switzerland) supplemented with 18 % FCS. With the approval of the local ethics committee (University Medicine Greifswald, Germany; No.: BB 047/14a), CCM1^-/- BOECs had been established previously from CCM1^+/- BOECs of a CCM1 mutation carrier with CRISPR/Cas9 genome editing. Mutant and wild-type ECs were co-cultured in 96-well plates under standard culture conditions with the indicated mutant-to-wild-type ratios. 2500 cells were seeded per well.
An apoptosis compound library with 189 small molecules that target apoptosis, survival and proliferation was used in a high throughput screening approach (HY-L003[HY-LD-000001651]; MedChem Express, Monmouth Junction, NJ, USA). Co-cultures were treated with 10 µM of each substrate for six days. Compounds were added 5 h and 3 days after cell seeding.
NSC59984 (IUPAC: (2E)-1-(4-Methyl-1-piperazinyl)-3-(5-nitro-2-furyl)-2-propen-1-one, HY19726, MedChem Express), was used for individual experiments with the indicated concentrations.
The fraction of mutant alleles in co-culture were analysed by amplicon deep sequencing or T7EI cleavage assay. In brief, genomic target regions were first amplified by PCR. For T7E1 cleavage assays, heteroduplexes were formed and digested with T7EI enzyme (New England Biolabs, Frankfurt am Main, Germany). Cleavage products were visualised by gel electrophoresis and analysed with the Image Lab software (v6.0, Bio-Rad, Hercules, CA, USA). For NGS analysis, sequencing adapters and individual barcodes were introduced in a second round of PCR [7]. Sequencing libraries were pooled and sequenced on a MiSeq instrument with 2 x 150 cycles (Illumina, San Diego, CA, USA). The data were analysed with the SeqNext software (JSI Medical Systems, Ettenheim, Germany).

[4] = system: caspase-3; assay: Caspase-3 activity assay; format: cell-based, human
Method: The proliferation rate of mutant and wild-type ECs in monoculture was quantified with the CyQuant® Cell Proliferation Assay Kit (C7026, Thermo Fisher Scientific). To discriminate the proliferation rates of CCM3^+/+ and CCM3^-/- CI-huVEC in co-culture, the CyQuant® Cell Proliferation Assay results were combined with mutant allele frequencies that had been determined by amplicon deep sequencing. To analyse their sensitivity to apoptosis, mutant and wild-type ECs were seeded in 96-well plates with 15.000 cells per well, and treated with staurosporine (S440, Sigma-Aldrich, St. Louis, MO, USA) 24 h later. The Caspase-3 DEVD-R110 Fluorometric HTS Assay Kit (30009, Biotium, Fremont, CA, USA), the Cell Meter™ Caspase 8 Activity Apoptosis Assay Kit (22798, AAT Bioquest, Sunnyvale, CA, USA), and the Cell Meter™ Caspase 9 Activity Apoptosis Assay Kit (22799, AAT Bioquest) were used following the manufacturer's instructions.

[5] = system: colon-tumour xenografts; details: cited from earlier work

SMILES: CN1CCN(C(=O)/C=C/c2ccc([N+](=O)[O-])o2)CC1 [NSC59984, (E)-1-(4-methylpiperazin-1-yl)-3-(5-nitrofuran-2yl)prop-2-en-1-one]
- Clonal expansion of CCM3^-/- BMECs in co-culture [1]: blocked the clonal expansion of CCM3^-/- BMECs in co-culture
- Cell viability differences between CCM3^+/+ and CCM3^-/- CI-huVECs [2]: No cell viability differences
- Mutant EC expansion at high spike-in ratios ([3]; 10 µM (Fig. 20)): blocked mutant EC expansion even at high spike-in ratios but did not decrease mutant allele frequencies
- Clonal expansion of mutant ECs after end of treatment ([3]; 10 µM for six days, then seven additional days without treatment (Fig. 21)): still efficiently blocked after the end of NSC59984 treatment
- Knockout allele frequencies ([3]; 10 µM of each compound, six days, added 5 h and 3 days after seeding, DMSO-treated co-culture controls 33.5 %): 10.2%
- Mutant EC expansion after pretreatment of CCM3^-/- CI-huVECs before co-culture ([3]; 6 days co-culture without additional treatment (Fig. 22)): completely prevented mutant EC expansion
- Clonal expansion of CCM3^-/- CI-huVECs in co-culture ([3]; different concentrations (Fig. 18)): blocked the clonal expansion of CCM3^-/- CI-huVECs in a concentration-dependent manner
- Apoptosis / caspase-3 activation ([4]; Fig. 16): induced apoptosis at a tolerable level
- Caspase-3 activities ([4]; treatment for 24 h, CCM3^+/+ and CCM3^-/- CI-huVECs (Fig. 16)): did not increase caspase-3 activities
- Adverse effects in xenograft mice [5]: Without apparent adverse effects
- Growth of colon-tumour xenografts ([5]; mice): repressed the growth of colon-tumour xenografts in mice
